In patent US20020022657A1, “Methods for modulating neuronal cell death” (priority 1998, published 2002):

System: Aβ-induced toxicity
Experiment: Aβ-induced toxicity, neuroprotection by Aβ-interferer (FIG. 6)
Type: cell-based
Conditions: Aβ: laminin molar ratio of 1:10^−3; internal positive control

## laminin
  Aβ-induced toxicity: neuroprotective
